From US9469647B2, “Salt crystals” (INTRA-CELLULAR THERAPIES, INC., priority 2012, dated 2016)
Counter-ions that a name gives are not always drawn. Like-named read-outs stand apart in the source and are kept apart here. Blank lines part the entries; values can stand above or below the compound they belong to.

Columns and labels:
[1] = Bridging study of monophosphate salt and free base in dog (plasma pharmacokinetics); format: in vivo; conditions: po, 40 mg/kg; for half-life: read-out: E Half-life (converted)
Procedure: The mono-phosphate salt of (6aR,9aS)-5,6a,7,8,9,9a-hexahydro-5-methyl-3-(phenylamino)-2-((4-(6-fluoropyridin-2-yl)phenyl)methyl)-cyclopent[4,5]imidazo[1,2-a]pyrazolo[4,3-e]pyrimidin-4(2H)-one is administered to dogs at a dose of 40 mg/kg in gelatin capsules or via oral gavage in a vehicle formulation of HCl-Citrate, pH 3.5, 0.5% methylcellulose in water. […] The analysis of drug concentration in plasma samples collected is analyzed.
The pharmacokinetic (PK) parameters are determined from the plasma concentration versus time data by non-compartmental methods with uniform weighting (PK solutions 2.0™, Summit Research Services, Montrose, Colo.). The maximum observed concentration (Cmax) and the time of the maximum observed concentration (tmax) are obtained from the bioanalytical raw data. The area-under-the-plasma concentration-time curve from time zero to the time of the last measurable sample (AUC_) is calculated by the trapezoidal rule.

[2] = Solubility study of phosphate salt crystals in aqueous media at pH 1.2-6.8; format: physicochemical; conditions: for solubility at 1 hr: read-out: Solubility after 1 hr; for solubility at 16 hr: read-out: Solubility after 16 hrs
Procedure: The (6aR,9aS)-5,6a,7,8,9,9a-hexahydro-5-methyl-3-(phenylamino)-2-((4-(6-fluoropyridin-2-yl)phenyl)methyl)-cyclopent[4,5]imidazo[1,2-a]pyrazolo[4,3-e]pyrimidin-4(2H)-one mono-phosphate salt crystals are assessed for its aqueous solubility at lower pH. The (amorphous) free base is also tested for reference at a limited range of pH.
Phosphate (buffer) solutions are made at 50 mM concentration and the pH is adjusted to pH 2, 3, 4, 5 or 6.8 using either 3M phosphoric acid (lower pH) or 3M NaOH (higher pH). 0.1N HCl is also used, pH is measured as 1.2.
20 mg of the (6aR,9aS)-5,6a,7,8,9,9a-hexahydro-5-methyl-3-(phenylamino)-2-((4-(6-fluoropyridin-2-yl)phenyl)methyl)-cyclopent[4,5]imidazo[1,2-a]pyrazolo[4,3-e]pyrimidin-4(2H)-one mono-phosphate salt crystals or free base is weighed into a glass vial, and 2 ml of the relevant aqueous media is added. The vials are shaken. After 1 hr, a sample (˜1 ml) is removed via syringe, and filtered through a syringe filter (0.2 micron) into an HPLC vial. After shaking the suspensions for 16 hours, a second sample is taken. All samples are then diluted with the HPLC diluent by a factor of 1000 (except the pH 6.8 samples which are diluted ×10), and re-analysed by HPLC. In cases where the entire solid dissolved, the 2 ml solution is added to another 20 mg salt or free base.

[3] = system: phosphodiesterase 1 (PDE 1); conditions: statement referring to WO 2009/075784; cited from earlier work
[4] = USP2 dissolution study at pH 1 and 4.5; format: physicochemical; conditions: for solubility at low pH in dissolution study: pH 1 (0.1 M HCl), 37 C; for time to full dissolution: pH 1, about 0.1 mg/mL (API equivalent), capsule in 1000 mL, 50 rpm
Description: The rate of dissolution is an important factor in the bioavailability of an active pharmaceutical ingredient (API). This is commonly tested using standard conditions e.g. USP 2 dissolution testing. The pH of the aqueous media used can be correlated with the pH of the stomach (low pH −1-2) and the intestines (intermediate acidic pH −4-6). Therefore pH 1 (0.1 M HCl) and a citrate buffer at pH 4.5 (0.2M) are used for the dissolution testing.
The (6aR,9aS)-5,6a,7,8,9,9a-hexahydro-5-methyl-3-(phenylamino)-2-((4-(6-fluoropyridin-2-yl)phenyl)methyl)-cyclopent[4,5]imidazo[1,2-a]pyrazolo[4,3-e]pyrimidin-4(2H)-one mono-phosphate salt crystals are weighed (×4) into size 0 white gelatine capsules at 119 mg per capsule (equivalent to 100 mg API). The (6aR,9aS)-5,6a,7,8,9,9a-hexahydro-5-methyl-3-(phenylamino)-2-((4-(6-fluoropyridin-2-yl)phenyl)methyl)-cyclopent[4,5]imidazo-[1,2-a]pyrazolo[4,3-e]pyrimidin-4(2H)-one is also weighed (×2) into white gelatine capsules at 100 mg per capsule. These capsules are then dissolved using the standard set up of the USP 2 dissolution equipment i.e., in 1000 mL of the relevant aqueous media, stirrers set at 50 rpm, capsules placed in metal coils to weigh them down, media equilibrated with the water bath set at 37″C. Analytical samples are removed via canula, with an initial filter on the canula and secondary filtering through 0.2 micron syringe filters. The samples are then analysed without dilution by HPLC for API content. Calibration for HPLC is run using both the free base API and the phosphate salt.

[5] = Single rising dose clinical study (pharmacokinetic profile); format: in vivo; conditions: plasma, human, aqueous solution, Mean (SD)
Procedure: In a single rising dose clinical study involving 55 active subjects (15 placebo) with 11 active:3 placebo for each dose level of 10, 25, 75, 150, 300 mg, the mono-phosphate salt crystals of (6aR,9aS)-5,6a,7,8,9,9a-hexahydro-5-methyl-3-(phenylamino)-2-((4-(6-fluoropyridin-2-yl)phenyl)methyl)-cyclopent[4,5]imidazo[1,2-a]pyrazolo[4,3-e]pyrimidin-4(2H)-one is dissolved in water, and this aqueous solution is orally administered. The pharmacokinetic profile is setforth below in Table 7.

[6] = Solid-state properties of the mono-phosphate salt crystals for galenic formulation; format: physicochemical
[7] = both sexes, Mean (M-5001 to F-5102), oral gavage
[8] = female, dog F-5101, oral gavage
[9] = female, dog F-5102, oral gavage
[10] = 50 mM phosphate buffer, pH 2, aqueous buffer, thermodynamic from solid, pH 2, 50 mM phosphate buffer
[11] = 0.1N HCl, pH 1.2, simulated gastric fluid, thermodynamic from solid, pH 1.2 (0.1N HCl)
[12] = female, dog F-1101, oral gavage
[13] = female, dog F-1102, oral gavage
[14] = female, dog F-2102, oral capsule
[15] = 50 mM phosphate buffer, pH 4, aqueous buffer, thermodynamic from solid, pH 4, 50 mM phosphate buffer
[16] = pH 5, 50 mM phosphate buffer, diluted 1000 times before HPLC
[17] = pH 6.8, 50 mM phosphate buffer, diluted 10 times before HPLC

- AUC [1, 7]: 19200 ng·h/mL
- Cmax [1, 7]: 1020 ng/mL
- Tmax [1, 7]: 4 h
- half-life [1, 7]: 10.8 h
- AUC [1, 8]: 11500 ng·h/mL
- Cmax [1, 8]: 674 ng/mL
- Tmax [1, 8]: 8 h
- half-life [1, 8]: 6.7 h
- AUC [1, 9]: 14300 ng·h/mL
- Cmax [1, 9]: 2000 ng/mL
- Tmax [1, 9]: 2 h
- half-life [1, 9]: 5.5 h
- AUC ([1]; male, dog M-5001, oral gavage): 20100 ng·h/mL
- Cmax ([1]; male, dog M-5001, oral gavage): 902 ng/mL
- Tmax ([1]; male, dog M-5001, oral gavage): 4 h
- half-life ([1]; male, dog M-5001, oral gavage): 14.8 h
- AUC ([1]; male, dog M-5002, oral gavage): 36500 ng·h/mL
- Cmax ([1]; male, dog M-5002, oral gavage): 1320 ng/mL
- Tmax ([1]; male, dog M-5002, oral gavage): 4 h
- half-life ([1]; male, dog M-5002, oral gavage): 16.7 h
- solubility at 1 hr [2, 10]: > 20000 µg/mL
- solubility at 16 hr [2, 10]: > 20000 µg/mL
- solubility at 1 hr [2, 11]: > 20000 µg/mL
- solubility at 16 hr [2, 11]: > 20000 µg/mL
- Solubility after 1 hr ([2]; pH 3, 50 mM phosphate buffer): 2500 µg/mL
- Solubility after 16 hrs ([2]; pH 3, 50 mM phosphate buffer): 2200 µg/mL
- solubility at low pH in dissolution study [4]: good solubility
- time to full dissolution [4]: approximately 15 minutes
SMILES: CN1C(=O)c2c(nn(Cc3ccc(-c4cccc(F)n4)cc3)c2Nc2ccccc2)N2C1=N[C@@H]1CCC[C@@H]12 [Free base API (amorphous), (6aR,9aS)-5,6a,7,8,9,9a-hexahydro-5-methyl-3-(phenylamino)-2-((4-(6-fluoropyridin-2-yl)phenyl)methyl)-cyclopent[4,5]imidazo[1,2-a]pyrazolo[4,3-e]pyrimidin-4(2H)-one]
- PDE1 inhibition (potency and selectivity in words) [3]: potent and selective phosphodiesterase 1 (PDE 1) inhibitor

- AUC(0-inf) ([5]; single oral dose 10 mg): 772 ng·h/mL
- AUC(0-t) ([5]; single oral dose 10 mg): 768 ng·h/mL
- Cmax ([5]; single oral dose 10 mg): 89.7 ng/mL
- Tmax ([5]; single oral dose 10 mg): 1 h
- AUC(0-inf) ([5]; single oral dose 25 mg): 1340 ng·h/mL
- AUC(0-t) ([5]; single oral dose 25 mg): 1340 ng·h/mL
- Cmax ([5]; single oral dose 25 mg): 155 ng/mL
- Tmax ([5]; single oral dose 25 mg): 0.5 h
- AUC(0-inf) ([5]; single oral dose 75 mg): 3050 ng·h/mL
- AUC(0-t) ([5]; single oral dose 75 mg): 3040 ng·h/mL
- Cmax ([5]; single oral dose 75 mg): 334 ng/mL
- Tmax ([5]; single oral dose 75 mg): 1 h
- AUC(0-inf) ([5]; single oral dose 150 mg): 5050 ng·h/mL
- AUC(0-t) ([5]; single oral dose 150 mg): 5040 ng·h/mL
- Cmax ([5]; single oral dose 150 mg): 585 ng/mL
- Tmax ([5]; single oral dose 150 mg): 1 h
- AUC(0-inf) ([5]; single oral dose 300 mg): 8190 ng·h/mL
- AUC(0-t) ([5]; single oral dose 300 mg): 8180 ng·h/mL
- Cmax ([5]; single oral dose 300 mg): 828 ng/mL
- Tmax ([5]; single oral dose 300 mg): 1 h
- AUC ([1]; both sexes, Mean, oral capsule): 18700 ng·h/mL
- Tmax ([1]; both sexes, Mean, oral capsule): 2 h
- half-life ([1]; both sexes, Mean, oral capsule): 7.3 h
- AUC ([1]; both sexes, Mean, oral gavage): 21300 ng·h/mL
- Tmax ([1]; both sexes, Mean, oral gavage): 4 h
- half-life ([1]; both sexes, Mean, oral gavage): 8.7 h
- AUC [1, 12]: 16200 ng·h/mL
- Cmax [1, 12]: 1080 ng/mL
- Tmax [1, 12]: 4 h
- half-life [1, 12]: 6.6 h
- AUC [1, 13]: 21300 ng·h/mL
- Cmax [1, 13]: 1360 ng/mL
- Tmax [1, 13]: 8 h
- half-life [1, 13]: 5.5 h
- AUC [1, 14]: 20500 ng·h/mL
- Cmax [1, 14]: 1470 ng/mL
- Tmax [1, 14]: 8 h
- half-life [1, 14]: 6.2 h
- AUC ([1]; male, dog M-1001, oral gavage): 16900 ng·h/mL
- Cmax ([1]; male, dog M-1001, oral gavage): 918 ng/mL
- Tmax ([1]; male, dog M-1001, oral gavage): 8 h
- half-life ([1]; male, dog M-1001, oral gavage): 7.8 h
- AUC ([1]; male, dog M-1002, oral gavage): 31600 ng·h/mL
- Cmax ([1]; male, dog M-1002, oral gavage): 1520 ng/mL
- Tmax ([1]; male, dog M-1002, oral gavage): 4 h
- half-life ([1]; male, dog M-1002, oral gavage): 12 h
- AUC ([1]; male, dog M-2001, oral capsule): 13200 ng·h/mL
- Cmax ([1]; male, dog M-2001, oral capsule): 2430 ng/mL
- Tmax ([1]; male, dog M-2001, oral capsule): 2 h
- half-life ([1]; male, dog M-2001, oral capsule): 4.6 h
- AUC ([1]; male, dog M-2002, oral capsule): 21900 ng·h/mL
- Cmax ([1]; male, dog M-2002, oral capsule): 1530 ng/mL
- Tmax ([1]; male, dog M-2002, oral capsule): 2 h
- half-life ([1]; male, dog M-2002, oral capsule): 7.8 h
- Cmax ([1]; Mean, oral capsule): 1330 ng/mL
- Cmax ([1]; Mean, oral gavage): 1160 ng/mL
- solubility ([2]; 50 mM phosphate buffer, pH 4, aqueous buffer, thermodynamic from solid, pH 4): ≤ 7700 µg/mL
- solubility at 1 hr [2, 15]: 2500 µg/mL
- solubility at 16 hr [2, 15]: 7700 µg/mL
- Solubility after 1 hr ([2]; pH 1.2 (0.1N HCl)): >20000 µg/mL
- Solubility after 16 hrs ([2]; pH 1.2 (0.1N HCl)): >20000 µg/mL
- Solubility after 1 hr ([2]; pH 2, 50 mM phosphate buffer): 13600 µg/mL
- Solubility after 16 hrs ([2]; pH 2, 50 mM phosphate buffer): 17000 µg/mL
- Solubility after 1 hr ([2]; pH 3, 50 mM phosphate buffer): 8400 µg/mL
- Solubility after 16 hrs ([2]; pH 3, 50 mM phosphate buffer): 9400 µg/mL
- Solubility after 1 hr [2, 16]: Below detection limit*
- Solubility after 16 hrs [2, 16]: Below detection limit*
- Solubility after 1 hr [2, 17]: Below detection limit*
- Solubility after 16 hrs [2, 17]: Below detection limit*
- solubility ([6]; general statement): good solubility
- hygroscopicity ([6]; solid salt crystals): low hygroscopicity
- stability ([6]; solid salt crystals): particularly stable
- solubility at low pH in dissolution study [4]: good solubility
- time to full dissolution [4]: approximately 15 minutes
SMILES: CN1C(=O)c2c(nn(Cc3ccc(-c4cccc(F)n4)cc3)c2Nc2ccccc2)N2C1=N[C@@H]1CCC[C@@H]12 [Phosphate salt, (6aR,9aS)-5,6a,7,8,9,9a-hexahydro-5-methyl-3-(phenylamino)-2-((4-(6-fluoropyridin-2-yl)phenyl)methyl)-cyclopent[4,5]imidazo[1,2-a]pyrazolo[4,3-e]pyrimidin-4(2H)-one]
- solubility compared with the amorphous free base ([2]; pH 3): better solubility than the amorphous free base
- dissolution rate compared with the free base ([4]; USP 2, pH 1 and pH 4.5): better dissolution rates than the free base
